Measured values: PubChem BioAssay AID2060511 (Molecular Pharmacology Branch, DTP, NCI, 2025)

Tested on: 422866-222-R5-J1-PDC spheroids with HUVEC/MSC, viability
Assay: Anticancer human tumor 422866-222-R5-J1-PDC patient-derived pancreatic adenocarcinoma cell line growth inhibition [GQUAD]
Settings: for IC50: curve of first compound; for viability, T/C: stronger effect = lower value
In short: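 Viability of tumor cells grown as complex spheroids with endothelial and stromal cells, exposed to drug combinations. Top concentration at or near clinical Cmax (else 10 microM), diluted in half-log increments.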

[1] = second compound 0.0316 µM, first compound 0.0316 µM
[2] = second compound 0.0316 µM, first compound 0.1 µM
[3] = second compound 0.0316 µM, first compound 0.316 µM
[4] = second compound 0.0316 µM, first compound 1 µM
[5] = second compound 0.0316 µM, first compound 3.16 µM
[6] = second compound 0.0316 µM, first compound 10 µM
[7] = second compound 0.1 µM, first compound 0.0316 µM
[8] = second compound 0.1 µM, first compound 0.1 µM
[9] = second compound 0.1 µM, first compound 0.316 µM
[10] = second compound 0.1 µM, first compound 1 µM
[11] = second compound 0.1 µM, first compound 3.16 µM
[12] = second compound 0.1 µM, first compound 10 µM
[13] = second compound 0.316 µM, first compound 0.0316 µM
[14] = second compound 0.316 µM, first compound 0.1 µM
[15] = second compound 0.316 µM, first compound 0.316 µM
[16] = second compound 0.316 µM, first compound 1 µM
[17] = second compound 0.316 µM, first compound 3.16 µM
[18] = second compound 0.316 µM, first compound 10 µM
[19] = second compound 1 µM, first compound 0.0316 µM
[20] = second compound 1 µM, first compound 0.1 µM
[21] = second compound 1 µM, first compound 0.316 µM
[22] = second compound 1 µM, first compound 1 µM
[23] = second compound 1 µM, first compound 3.16 µM
[24] = second compound 1 µM, first compound 10 µM
[25] = second compound 3.16 µM, first compound 0.0316 µM
[26] = second compound 3.16 µM, first compound 0.1 µM
[27] = second compound 3.16 µM, first compound 0.316 µM
[28] = second compound 3.16 µM, first compound 1 µM
[29] = second compound 3.16 µM, first compound 3.16 µM
[30] = second compound 3.16 µM, first compound 10 µM
[31] = second compound 10 µM, first compound 0.0316 µM
[32] = second compound 10 µM, first compound 0.1 µM
[33] = second compound 10 µM, first compound 0.316 µM
[34] = second compound 10 µM, first compound 1 µM
[35] = second compound 10 µM, first compound 3.16 µM
[36] = second compound 10 µM, first compound 10 µM
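Further: spheroids exposed to compounds for seven days before reading.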
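Wherever viability, T/C is given: percent viability relative to DMSO vehicle control taken as 100%.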

COc1cc(C2c3cc4c(cc3C(OC3OC5COC(C)OC5C(O)C3O)C3COC(=O)C23)OCO4)cc(OC)c1O (stereo unspecified) + Cc1cnc(CNC(=O)c2c(=O)c3ccc(N4CCCN(C)CC4)nc3n3c2sc2ccccc23)cn1
IC50 (second compound 0.0316 µM): 3.77 µM | IC50 (second compound 0.1 µM): > 10 µM | IC50 (second compound 0.316 µM): > 10 µM | IC50 (second compound 1 µM): > 10 µM | IC50 (second compound 3.16 µM): > 10 µM | IC50 (second compound 10 µM): > 10 µM | viability, T/C [1]: 98.4% | viability, T/C [2]: 78.3% | viability, T/C [3]: 83.7% | viability, T/C [4]: 59.4% | viability, T/C [5]: 53.5% | viability, T/C [6]: 39.1% | viability, T/C [7]: 92.8% | viability, T/C [8]: 79.2% | viability, T/C [9]: 77.6% | viability, T/C [10]: 66.8% | viability, T/C [11]: 59.2% | viability, T/C [12]: 49.7% | viability, T/C [13]: 81.6% | viability, T/C [14]: 94.8% | viability, T/C [15]: 84% | viability, T/C [16]: 80.9% | viability, T/C [17]: 71.8% | viability, T/C [18]: 58.9% | viability, T/C [19]: 81.9% | viability, T/C [20]: 92% | viability, T/C [21]: 91.4% | viability, T/C [22]: 91.4% | viability, T/C [23]: 81.1% | viability, T/C [24]: 56% | viability, T/C [25]: 84.6% | viability, T/C [26]: 87.3% | viability, T/C [27]: 82.4% | viability, T/C [28]: 85.5% | viability, T/C [29]: 81.6% | viability, T/C [30]: 60% | viability, T/C [31]: 86.2% | viability, T/C [32]: 80.4% | viability, T/C [33]: 85.5% | viability, T/C [34]: 93.2% | viability, T/C [35]: 85.1% | viability, T/C [36]: 52.1%

COc1cccc2c1C(=O)c1c(O)c3c(c(O)c1C2=O)CC(O)(C(=O)CO)CC3OC1CC(N)C(O)C(C)O1 (stereo unspecified) + Cc1cnc(CNC(=O)c2c(=O)c3ccc(N4CCCN(C)CC4)nc3n3c2sc2ccccc23)cn1
IC50 (second compound 0.0316 µM): 0.983 µM | IC50 (second compound 0.1 µM): 0.961 µM | IC50 (second compound 0.316 µM): 1.18 µM | IC50 (second compound 1 µM): 1.29 µM | IC50 (second compound 3.16 µM): 1.4 µM | IC50 (second compound 10 µM): 1.11 µM | viability, T/C [1]: 100% | viability, T/C [2]: 65.7% | viability, T/C [3]: 78.6% | viability, T/C [4]: 46.5% | viability, T/C [5]: 33.9% | viability, T/C [6]: 25.7% | viability, T/C [7]: 89.3% | viability, T/C [8]: 69.5% | viability, T/C [9]: 78.9% | viability, T/C [10]: 48.7% | viability, T/C [11]: 34.8% | viability, T/C [12]: 30.1% | viability, T/C [13]: 83.3% | viability, T/C [14]: 81.8% | viability, T/C [15]: 73% | viability, T/C [16]: 51.5% | viability, T/C [17]: 37.3% | viability, T/C [18]: 30% | viability, T/C [19]: 73.3% | viability, T/C [20]: 86.8% | viability, T/C [21]: 80.1% | viability, T/C [22]: 54.8% | viability, T/C [23]: 33.7% | viability, T/C [24]: 29.5% | viability, T/C [25]: 95.4% | viability, T/C [26]: 80.4% | viability, T/C [27]: 79.2% | viability, T/C [28]: 54.7% | viability, T/C [29]: 36.5% | viability, T/C [30]: 34.2% | viability, T/C [31]: 74.2% | viability, T/C [32]: 82.6% | viability, T/C [33]: 75% | viability, T/C [34]: 50.4% | viability, T/C [35]: 35.6% | viability, T/C [36]: 26.7%

Nc1ccn(C2OC(CO)C(O)C2(F)F)c(=O)n1 (stereo unspecified) + Cc1cnc(CNC(=O)c2c(=O)c3ccc(N4CCCN(C)CC4)nc3n3c2sc2ccccc23)cn1
IC50 (second compound 0.0316 µM): 1.19 µM | IC50 (second compound 0.1 µM): > 10 µM | IC50 (second compound 0.316 µM): > 10 µM | IC50 (second compound 1 µM): > 10 µM | IC50 (second compound 3.16 µM): > 10 µM | IC50 (second compound 10 µM): > 10 µM | viability, T/C [1]: 86.7% | viability, T/C [2]: 67.8% | viability, T/C [3]: 69.1% | viability, T/C [4]: 47.2% | viability, T/C [5]: 41.9% | viability, T/C [6]: 43% | viability, T/C [7]: 85.6% | viability, T/C [8]: 87% | viability, T/C [9]: 70.7% | viability, T/C [10]: 48.6% | viability, T/C [11]: 50.8% | viability, T/C [12]: 54.8% | viability, T/C [13]: 96.5% | viability, T/C [14]: 81% | viability, T/C [15]: 70.3% | viability, T/C [16]: 62.3% | viability, T/C [17]: 54.1% | viability, T/C [18]: 58.1% | viability, T/C [19]: 78.2% | viability, T/C [20]: 72.7% | viability, T/C [21]: 74.3% | viability, T/C [22]: 69.2% | viability, T/C [23]: 68.3% | viability, T/C [24]: 63.4% | viability, T/C [25]: 70.5% | viability, T/C [26]: 88.6% | viability, T/C [27]: 72.4% | viability, T/C [28]: 79.8% | viability, T/C [29]: 71.2% | viability, T/C [30]: 58.4% | viability, T/C [31]: 84.9% | viability, T/C [32]: 78.4% | viability, T/C [33]: 89.5% | viability, T/C [34]: 79.2% | viability, T/C [35]: 67.2% | viability, T/C [36]: 63.4%
